Each structure is given as a SMILES string.

In assay [1] the target is T1, COX-2 (Mus musculus, UniProt Q05769).
T1 construct: host or cells: RAW 264.7 cells, aspirin-pretreated, then induced with interferon and LPS
T1 sequence (Q05769 18-604): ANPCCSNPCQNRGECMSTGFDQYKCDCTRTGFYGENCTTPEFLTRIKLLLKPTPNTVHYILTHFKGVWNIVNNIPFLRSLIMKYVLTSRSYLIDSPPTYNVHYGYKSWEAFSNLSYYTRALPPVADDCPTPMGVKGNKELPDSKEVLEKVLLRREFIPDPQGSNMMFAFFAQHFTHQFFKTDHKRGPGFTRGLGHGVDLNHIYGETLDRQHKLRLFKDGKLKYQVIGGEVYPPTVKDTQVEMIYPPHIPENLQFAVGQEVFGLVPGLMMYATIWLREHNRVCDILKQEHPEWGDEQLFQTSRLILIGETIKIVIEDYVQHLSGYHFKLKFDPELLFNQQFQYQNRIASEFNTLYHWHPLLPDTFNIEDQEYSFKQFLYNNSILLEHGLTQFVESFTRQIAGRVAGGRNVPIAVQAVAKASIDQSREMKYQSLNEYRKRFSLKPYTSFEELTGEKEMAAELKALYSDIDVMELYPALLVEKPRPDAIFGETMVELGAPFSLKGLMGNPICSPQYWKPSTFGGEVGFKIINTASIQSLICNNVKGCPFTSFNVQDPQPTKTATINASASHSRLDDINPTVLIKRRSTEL
The assay is described as follows: Assay for the COX-2 inhibitory activity using RAW 264.7 cell line (PGE2 inhibition). It is filed as cell-based. Particulars: RAW264.7, RAW 264.7 cells, test compound 10 nM, interferon/LPS 18 hours, read-out: Cyclooxygenase (COX) Inhibition (%) COX-2 (10 nM). On the procedure:
Each well was treated with 250 μM of aspirin and incubated at 37° C. for 2 hours. After the culture media were replaced with new culture media, the new culture media were treated with a test compound (10 nM) and incubated for 30 minutes. Then, each well was treated with interferon (100 units/ml) and lipopolysaccharide (LPS, 100 ng/ml) and incubated for 18 hours. The culture media were transferred to other test tubes. The concentration of PGE2 was quantified by means of the EIA kit (Cayman Chemicals).
(§1) The percentages of the COX inhibition were calculated according to the following equation:
(§2) % Inhibition=(concentration of PGE2 in test compound-untreated sample —concentration of PGE2 in test compound-treated sample)/(concentration of PGE2 in test compound-untreated sample)×100

Assay [2] concerns the target T2, COX-1 (Homo sapiens, UniProt P23219).
T2 construct: host or cells: U-937 human lymphoma cells
The assay is described as follows: Assay for the COX-1 inhibitory activity using U-937 (PGE2 inhibition). It is filed as cell-based. Particulars: U-937 human lymphoma cells, test compound 1 μM, PGE2 vs DMSO control; read-out: Cyclooxygenase (COX) Inhibition (%) COX-1 (1 μM). The protocol:
The collected cells were diluted with HBSS (×1, Hank's balanced salt solution) to a concentration of 1×10^6 cells/ml. 1 ml of the dilute cell solution was placed into each well of 12-well plates. 5 μl of 1 μM solution of a test compound in DMSO and 5 μl of DMSO as a control were added to the wells. The wells were incubated in CO2 incubator at 37° C. for 15 minutes. Separately, 10 mM stock solution of arachidonic acid in ethanol was diluted ten times in ethanol to prepare 1 mM solution of arachidonic acid. Arachidonic acid acts as a substrate. 10 μl of the 1 mM solution of arachidonic acid was added to each well and incubated at CO2 incubator at 37° C. for 30 minutes. The cell solution of each well was placed in a centrifuge test tube and centrifuged at 10,000 rpm at 4° C. for 5 minutes. The concentration of PGE2 in the collected cells and the supernatant was quantified by means of a monoclonal kit (Cayman Chemicals). The percentages of PGE2 inhibition in a group of the test compound-treated cells in relation to a group of the DMSO-treated cells were calculated. Based on the calculated values, the COX-1 inhibitory activities were evaluated.
as §1, §2

T2 sequence (P23219 24-599): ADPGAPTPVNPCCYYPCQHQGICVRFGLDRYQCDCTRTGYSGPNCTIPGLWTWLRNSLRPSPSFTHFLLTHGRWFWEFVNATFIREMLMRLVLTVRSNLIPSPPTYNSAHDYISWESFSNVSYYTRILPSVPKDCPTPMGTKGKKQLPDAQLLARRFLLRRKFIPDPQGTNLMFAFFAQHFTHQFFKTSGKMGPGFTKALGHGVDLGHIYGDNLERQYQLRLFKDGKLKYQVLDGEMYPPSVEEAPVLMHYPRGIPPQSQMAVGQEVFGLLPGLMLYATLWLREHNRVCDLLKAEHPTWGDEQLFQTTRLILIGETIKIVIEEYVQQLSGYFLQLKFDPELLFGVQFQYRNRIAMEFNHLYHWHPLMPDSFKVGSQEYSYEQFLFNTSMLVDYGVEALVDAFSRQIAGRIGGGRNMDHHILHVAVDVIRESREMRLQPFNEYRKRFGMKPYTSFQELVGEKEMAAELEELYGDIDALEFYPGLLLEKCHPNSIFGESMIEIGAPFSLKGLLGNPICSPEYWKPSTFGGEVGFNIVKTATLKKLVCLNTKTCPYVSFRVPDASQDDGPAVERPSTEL

The inhibition is the share of the control response that was lost under treatment. With `CS(=O)(=O)c1ccc(-n2nc(C(F)(F)F)nc2-c2ccccc2)cc1F` [Example 22, 1-(3-fluoro-4-methanesulfonylphenyl)-5-phenyl-3-trifluoromethyl-1H-1,2,4-triazole], the inhibition at 0.01 µM in assay [1] stood at 13.7%. Further, the inhibition at 1 µM in assay [2] was 32.8%.

Turning to `COc1ccc(-c2nc(C(F)(F)F)nn2-c2ccc(S(C)(=O)=O)c(F)c2)cc1` [Example 23, 1-(3-fluoro-4-methanesulfonylphenyl)-5-(4-methoxyphenyl)-3-trifluoromethyl-1H-1,2,4-triazole], in assay [1], the inhibition at 0.01 µM amounted to 41.2%. In assay [2], the inhibition at 1 µM came to 15.5%.

In the case of `CS(=O)(=O)c1ccc(-n2nc(C(F)(F)F)nc2-c2ccc(F)cc2)cc1F` [Example 24, 1-(3-fluoro-4-methanesulfonylphenyl)-5-(4-fluorophenyl)-3-trifluoro methyl-1H-1,2,4-triazole], the inhibition at 0.01 µM in assay [1] is 18.5%. In addition, the inhibition at 1 µM in assay [2] was 18.8%.

As to `CS(=O)(=O)c1ccc(-n2nc(C(F)(F)F)nc2-c2ccc(Br)cc2)cc1F` [Example 25, 1-(3-fluoro-4-methanesulfonylphenyl)-5-(4-bromophenyl)-3-trifluoromethyl-1H-1,2,4-triazole], the inhibition at 0.01 µM in assay [1] amounted to 13.7%. Further, the inhibition at 1 µM in assay [2] was found to be 19.5%.

With `CS(=O)(=O)c1ccc(-n2nc(C(F)(F)F)nc2-c2ccc(Cl)cc2)cc1F` [Example 26], the inhibition at 0.01 µM in assay [1] is 22.3%. In addition, the inhibition at 1 µM in assay [2] was 27.4%.

For `Cc1ccc(-c2nc(C(F)(F)F)nn2-c2ccc(S(C)(=O)=O)c(F)c2)cc1` [Example 27, 1-(3-fluoro-4-methanesulfonylphenyl)-5-(4-methylphenyl)-3-trifluoromethyl-1H-1,2,4-triazole], the inhibition at 0.01 µM in assay [1] is 19%. For the same compound, in assay [2], the inhibition at 1 µM turned out to be 26.4%.

Consider `CCOc1ccc(-c2nc(C(F)(F)F)nn2-c2ccc(S(C)(=O)=O)c(F)c2)cc1` [Example 28, 1-(3-fluoro-4-methanesulfonylphenyl)-5-(4-ethoxyphenyl)-3-trifluoromethyl-1H-1,2,4-triazole], for which, in assay [1], the inhibition at 0.01 µM was 15.6%. Further, the inhibition at 1 µM in assay [2] is 25.7%.

Consider `CS(=O)(=O)c1ccc(-n2nc(C(F)(F)F)nc2-c2cccc(Cl)c2)cc1F` [Example 29, 1-(3-fluoro-4-methanesulfonylphenyl)-5-(3-chlorophenyl)-3-trifluoro methyl-1H-1,2,4-triazole], for which the inhibition at 0.01 µM in assay [1] is 16.4%. Moreover, the inhibition at 1 µM in assay [2] amounted to 11.1%.

Regarding `CS(=O)(=O)c1ccc(-n2nc(C(F)(F)F)nc2-c2cccc(F)c2)cc1F` [Example 30, 1-(3-fluoro-4-methanesulfonylphenyl)-5-(3-fluorophenyl)-3-trifluoro methyl-1H-1,2,4-triazole], in assay [1], the inhibition at 0.01 µM was found to be 15.1%. Moreover, in assay [2], the inhibition at 1 µM worked out at 23.2%.

For the compound `COc1ccc(-c2nc(C(F)(F)F)nn2-c2ccc(S(C)(=O)=O)c(F)c2)cc1F` [Example 31, 1-(3-fluoro-4-methanesulfonylphenyl)-5-(3-fluoro-4-methoxyphenyl)-3-trifluoromethyl-1H-1,2,4-triazole], the inhibition at 0.01 µM in assay [1] was 16.2%. The inhibition at 1 µM in assay [2] was determined as 26.4%.

Consider `Cc1cccc(-c2nc(C(F)(F)F)nn2-c2ccc(S(C)(=O)=O)c(F)c2)c1` [Example 32, 1-(3-fluoro-4-methanesulfonylphenyl)-5-(3-methylphenyl)-3-trifluoromethyl-1H-1,2,4-triazole], for which, in assay [1], the inhibition at 0.01 µM was 27.8%. Moreover, the inhibition at 1 µM in assay [2] amounted to 23.2%.

Consider `CS(=O)(=O)c1ccc(-n2nc(C(F)(F)F)nc2-c2ccc3ccccc3c2)cc1F` [Example 33, 1-(3-fluoro-4-methanesulfonylphenyl)-5-(naphthalene-2-yl)-3-trifluoromethyl-1H-1,2,4-triazole], for which, in assay [1], the inhibition at 0.01 µM was 13.5%. Further, the inhibition at 1 µM in assay [2] came out at 44.5%.

Consider `CS(=O)(=O)c1ccc(-n2nc(C(F)(F)F)nc2-c2ccc3c(c2)OCO3)cc1F` [Example 34, 5-([1,3]benzodioxole-5-yl)-1-(3-fluoro-4-methanesulfonylphenyl)-3-trifluoromethyl-1H-1,2,4-triazole], for which, in assay [1], the inhibition at 0.01 µM amounted to 41.5%. In assay [2], the inhibition at 1 µM is 11.2%.

Turning to `CS(=O)(=O)c1ccc(-n2nc(C(F)(F)F)nc2-c2ccc(F)c(F)c2)cc1F` [Example 35, 1-(3-fluoro-4-methanesulfonylphenyl)-5-(3,4-difluorophenyl)-3-trifluoromethyl-1H-1,2,4-triazole], the inhibition at 0.01 µM in assay [1] was 15.5%. In assay [2], the inhibition at 1 µM was determined as 21.2%.

For the origin of these results see US6849652B1, “1,2,4-triazole derivative, method for preparing the same, and pharmaceutical composition containing the same” (CJ Corp., priority 2002, dated 2005).
